Measurements: ChEMBL document CHEMBL1201862, “PubChem BioAssay data set” (2004)
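Exposure lasted 48 hours, with cells grown in 96-well plates and compounds tested at five concentrations. GI50 = concentration required for 50% inhibition of growth.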 Calls of active or inactive are those of the source. Cut-off read from the data, not from the text of the source: active = GI50 up to about 1.1 µM and inactive = higher.

Tests used:
Assay in all cases: DTP human tumour cell line panel, 48 h
786-0 = system: 786-0
A498 = system: A498
A549 = system: A549
ACHN = system: ACHN
BT-549 = system: BT-549
CAKI-1 = system: CAKI-1
CCRF-CEM = system: CCRF-CEM
COLO 205 = system: COLO 205
DU-145 = system: DU-145
EKVX = system: EKVX
HCC 2998 = system: HCC 2998
HCT-116 = system: HCT-116
HCT-15 = system: HCT-15
HL-60 = system: HL-60
HOP-62 = system: HOP-62
HOP-92 = system: HOP-92
HT-29 = system: HT-29
Hs-578T = system: Hs-578T
IGROV-1 = system: IGROV-1
KM12 = system: KM12
LOX IMVI = system: LOX IMVI
M14 = system: M14
MCF7 = system: MCF7
MDA-MB-231 = system: MDA-MB-231
MDA-MB-435 = system: MDA-MB-435
MDA-N = system: MDA-N
MOLT-4 = system: MOLT-4
Malme-3M = system: Malme-3M
NCI-H226 = system: NCI-H226
NCI-H23 = system: NCI-H23
NCI-H522 = system: NCI-H522
NCI/ADR-RES = system: NCI/ADR-RES
OVCAR-3 = system: OVCAR-3
OVCAR-4 = system: OVCAR-4
OVCAR-5 = system: OVCAR-5
OVCAR-8 = system: OVCAR-8
PC-3 = system: PC-3
RPMI-8226 = system: RPMI-8226
RXF 393 = system: RXF 393
SF-268 = system: SF-268
SF-295 = system: SF-295
SF-539 = system: SF-539
SK-MEL-28 = system: SK-MEL-28
SK-MEL-2 = system: SK-MEL-2
SK-MEL-5 = system: SK-MEL-5
SK-OV-3 = system: SK-OV-3
SN12C = system: SN12C
SNB-19 = system: SNB-19
SNB-75 = system: SNB-75
SR = system: SR
SW-620 = system: SW-620
T47D = system: T47D
TK-10 = system: TK-10
U-251 = system: U-251
UACC-257 = system: UACC-257
UACC-62 = system: UACC-62
UO-31 = system: UO-31
K562 = system: K562
NCI-H460 = system: NCI-H460

For COc1ccc(C(OCC2OC(n3cc(C)c(=O)[nH]c3=O)CC2n2cc(Cn3cc(Cl)c(=O)[nH]c3=O)nn2)(c2ccccc2)c2ccccc2)cc1 (stereo not drawn), the GI50 (786-0) was > 100 µM (inactive), the GI50 (A498) was > 100 µM (inactive) and the GI50 (A549) was > 100 µM (inactive). For the same compound, the GI50 (ACHN) was > 100 µM (inactive), the GI50 (BT-549) was 82.6 µM (inactive) and the GI50 (CAKI-1) was > 100 µM (inactive). For the same compound, the GI50 (CCRF-CEM) was 2.95 µM (inactive), the GI50 (COLO 205) was > 100 µM (inactive) and the GI50 (DU-145) was > 100 µM (inactive). For the same compound, the GI50 (EKVX) was > 100 µM (inactive), the GI50 (HCC 2998) was > 100 µM (inactive) and the GI50 (HCT-116) was 33.9 µM (inactive). For the same compound, the GI50 (HCT-15) was greater than 100 µM, the GI50 (HL-60) was 3 µM (inactive) and the GI50 (HOP-62) was > 100 µM (inactive). The GI50 (HOP-92) was 28.8 µM (inactive), the GI50 (HT-29) was > 100 µM (inactive) and the GI50 (Hs-578T) was 65 µM (inactive). The GI50 (IGROV-1) was 39.5 µM (inactive), the GI50 (KM12) was > 100 µM (inactive) and the GI50 (LOX IMVI) was > 100 µM (inactive). For the same compound, the GI50 (M14) was > 100 µM (inactive), the GI50 (MCF7) was 21.8 µM (inactive) and the GI50 (MDA-MB-231) was 27.6 µM (inactive). For the same compound, the GI50 (MDA-MB-435) was 7.18 µM (inactive), the GI50 (MDA-N) was 9.14 µM (inactive) and the GI50 (MOLT-4) was 4.7 µM (inactive). For the same compound, the GI50 (Malme-3M) was > 100 µM (inactive), the GI50 (NCI-H226) was > 100 µM (inactive) and the GI50 (NCI-H23) was > 100 µM (inactive). The GI50 (NCI-H522) was > 100 µM (inactive), the GI50 (NCI/ADR-RES) was > 100 µM (inactive) and the GI50 (OVCAR-3) was > 100 µM (inactive). The GI50 (OVCAR-4) was > 100 µM (inactive), the GI50 (OVCAR-5) was > 100 µM (inactive) and the GI50 (OVCAR-8) was > 100 µM (inactive). For the same compound, the GI50 (PC-3) was 13.6 µM (inactive), the GI50 (RPMI-8226) was 4.31 µM (inactive) and the GI50 (RXF 393) was > 100 µM (inactive). The GI50 (SF-268) was > 100 µM (inactive), the GI50 (SF-295) was > 100 µM (inactive) and the GI50 (SF-539) was > 100 µM (inactive). For the same compound, the GI50 (SK-MEL-28) was 87.5 µM (inactive), the GI50 (SK-MEL-2) was > 100 µM (inactive) and the GI50 (SK-MEL-5) was > 100 µM (inactive). The GI50 (SK-OV-3) was > 100 µM (inactive), the GI50 (SN12C) was > 100 µM (inactive) and the GI50 (SNB-19) was > 100 µM (inactive). For the same compound, the GI50 (SNB-75) was > 100 µM (inactive), the GI50 (SR) was 4.02 µM (inactive) and the GI50 (SW-620) was > 100 µM (inactive). For the same compound, the GI50 (T47D) was > 100 µM (inactive), the GI50 (TK-10) was > 100 µM (inactive) and the GI50 (U-251) was 24.8 µM (inactive). The GI50 (UACC-257) was > 100 µM (inactive), the GI50 (UACC-62) was 38 µM (inactive) and the GI50 (UO-31) was > 100 µM (inactive).
CC1(C)NC2C(=O)c3c([nH]c4ccccc34)[C@]3(C)CCC1CC23 (stereo partly drawn) was tested, and the GI50 (786-0) was > 100 µM (inactive), the GI50 (A498) was > 100 µM (inactive) and the GI50 (A549) was > 100 µM (inactive). For the same compound, the GI50 (ACHN) was > 100 µM (inactive), the GI50 (BT-549) was > 100 µM (inactive) and the GI50 (CAKI-1) was > 100 µM (inactive). For the same compound, the GI50 (CCRF-CEM) was > 100 µM (inactive), the GI50 (COLO 205) was > 100 µM (inactive) and the GI50 (DU-145) was > 100 µM (inactive). For the same compound, the GI50 (EKVX) was > 100 µM (inactive), the GI50 (HCC 2998) was > 100 µM (inactive) and the GI50 (HCT-116) was > 100 µM (inactive). The GI50 (HCT-15) was 83 µM, the GI50 (HL-60) was > 100 µM (inactive) and the GI50 (HOP-62) was > 100 µM (inactive). The GI50 (HOP-92) was 61.7 µM (inactive), the GI50 (HT-29) was 94.8 µM (inactive) and the GI50 (Hs-578T) was > 100 µM (inactive). For the same compound, the GI50 (IGROV-1) was > 100 µM (inactive), the GI50 (K562) was 96.8 µM (inactive) and the GI50 (KM12) was > 100 µM (inactive). The GI50 (LOX IMVI) was > 100 µM (inactive), the GI50 (MCF7) was > 100 µM (inactive) and the GI50 (MDA-MB-231) was > 100 µM (inactive). For the same compound, the GI50 (MDA-MB-435) was > 100 µM (inactive), the GI50 (MDA-N) was > 100 µM (inactive) and the GI50 (MOLT-4) was 59.4 µM (inactive). The GI50 (Malme-3M) was > 100 µM (inactive), the GI50 (NCI-H226) was > 100 µM (inactive) and the GI50 (NCI-H23) was > 100 µM (inactive). For the same compound, the GI50 (NCI-H460) was > 100 µM (inactive), the GI50 (NCI-H522) was > 100 µM (inactive) and the GI50 (NCI/ADR-RES) was > 100 µM (inactive). For the same compound, the GI50 (OVCAR-3) was > 100 µM (inactive), the GI50 (OVCAR-4) was 60.8 µM (inactive) and the GI50 (OVCAR-5) was > 100 µM (inactive). For the same compound, the GI50 (OVCAR-8) was > 100 µM (inactive), the GI50 (PC-3) was > 100 µM (inactive) and the GI50 (RPMI-8226) was 82.8 µM (inactive). The GI50 (RXF 393) was > 100 µM (inactive), the GI50 (SF-268) was > 100 µM (inactive) and the GI50 (SF-295) was > 100 µM (inactive). For the same compound, the GI50 (SF-539) was > 100 µM (inactive), the GI50 (SK-MEL-28) was > 100 µM (inactive) and the GI50 (SK-MEL-2) was > 100 µM (inactive). The GI50 (SK-MEL-5) was > 100 µM (inactive), the GI50 (SN12C) was > 100 µM (inactive) and the GI50 (SNB-75) was > 100 µM (inactive). For the same compound, the GI50 (SR) was 55.2 µM (inactive), the GI50 (SW-620) was > 100 µM (inactive) and the GI50 (T47D) was 21.6 µM (inactive). For the same compound, the GI50 (TK-10) was > 100 µM (inactive), the GI50 (U-251) was > 100 µM (inactive) and the GI50 (UACC-257) was > 100 µM (inactive). For the same compound, the GI50 (UACC-62) was > 100 µM (inactive) and the GI50 (UO-31) was > 100 µM (inactive).
